Assays:
IFN-γ = test: LPS model of inflammation in rats: IFN-γ in plasma and cortex; type: in vivo, rat; conditions: LPS-challenged rats; for IFN-γ in plasma (in words): low and high dose
CCI-induced TBI mice [1] = test: CCI mouse model of TBI: brain lesion and lateral ventricle size (Giemsa); type: in vivo
Experimental: (§1) In vivo model of TBI: Mice were anesthetized with 2.5% tribromoethanol (Avertin: 250 mg/kg; Sigma, St. Louis, MO, USA) and placed in a stereotaxic frame (Kopf Instruments, Tujunga, CA, USA). A 4 mm craniotomy was performed using sterile procedures; the craniotomy point was selected midway between the lambda and bregma sutures and laterally midway between the central suture and the temporalis muscle. The skull fragment was then carefully removed without disruption of the underlying dura. Prior to injury induction, the tip of the impactor was angled and kept perpendicular to the exposed cortical surface. The mouse CCI instrument consisted of an electromagnetic impactor, Impact One (Leica Biosystems Inc., Buffalo Grove, IL, USA) that allows independent alteration of injury severity by controlling contact velocity and the level of cortical deformation. In these experiments, the contact velocity was set at 5.0 m/sec, the dwell time was set at 0.2 s and the deformation depth was set at 2 mm to produce a moderate TBI. The injury site was allowed to dry prior to suturing the wound. During surgery and recovery, the body temperature of the animals was maintained at 36-37° C. by using a heating pad. […] Mice were randomized following CCI to treatment with either of two doses of TFBP (16.25 mg/kg and 32.5 mg/kg, i.p.) or saline, and were dosed at 1 and 24 hr after the injury.
Tissue processing: Two weeks after injury, mice were deeply anesthetized with isoflurane and perfused transcardially with 30 ml phosphate buffered saline (PBS). After removal, the brain was post-fixed with 4% PFA overnight then transferred to a 30% sucrose solution in PBS. […]
Quantification of brain lesion and lateral ventricle size in TBI animals: One set of brain sections 2-weeks post-CCI were mounted on slides. […] Brain image regions were quantified using ImageJ 1.52q software (National Institutes of Health, Bethesda, MD). […] There were 9 brain sections from each mouse counted by blinded observers, with regions starting from bregma at 0.86 to −1.46 mm.
(§2) In Vivo Model of TBI: TBI studies were conducted in 8-week-old male C57/BL6 mice (25-30 g; n=20), Jackson Laboratory, Bar Harbor, Maine USA. Mice were randomly assigned to four groups prior surgery, CMC+Sham, CMC+TBI, compound 30 (Low dose (LD), 14.78 mg/kg, prepared in 1% CMC in PBS)+TBI, compound 30 (High dose (HD), 29.57 mg/kg)+TBI, and evaluated the effects of compound 30 on TBI. Mice were assessed for gait function and motor coordination, balance function. Animals were subsequently evaluated for cellular changes using histological and immunohistochemistry staining. […]

CCI-induced TBI mice [2] = test: CCI mouse model of TBI: Iba1 microglia / GFAP astrocyte immunofluorescence (MotiQ); type: in vivo
Experimental: as §1
Tissue processing: Two weeks after injury, mice were deeply anesthetized with isoflurane and perfused transcardially with 30 ml phosphate buffered saline (PBS). After removal, the brain was post-fixed with 4% PFA overnight then transferred to a 30% sucrose solution in PBS. Coronal sections from the dorsal hippocampus and the posterior parietal cortex were cryosectioned at 25 μm thickness and stored in cryoprotectant solution for Giemsa staining and immunohistochemical analysis.
Immunofluorescence analysis: For GFAP and Iba1 quantification, brain samples were incubated overnight with either one of the following primary antibodies: anti-GFAP 1:2500 dilution (chicken polyclonal, Abcam, USA, cat #ab4674) or anti-Iba1 1:200 dilution (guinea pig polyclonal anti-Iba1, Synaptic System, USA, cat #234004). After PBS washing, sections were incubated for 1 hr at RT with a goat anti-chicken AlexaFluor® 488-conjugated secondary antibody IgY (H+L) 1:500 dilution (ThermoFisher, USA, cat #A-21432) for detection of GFAP, and with a Goat anti-Guinea Pig IgG (H+L) Highly Cross-Adsorbed Secondary Antibody, Alexa Fluor™ 555, ThermoFisher, USA, cat #A-21435) for detection of Iba1. Sections were washed in PBS and mounted with […]® Antifade Mounting Medium with DAPI (Vectorlabs, USA, cat #H-1200). Controls consisted of omission of the primary antibody. […] Multiple parameters were analyzed, including ramification index, spanned area, number of branches, junctions and endpoints.
as §2

SALL4 = SALL4 (Homo sapiens (Human), UniProt Q9UJQ4); test: SALL4 expression in Tera-1 cells (Western blot); type: cell-based; conditions: Tera-1 cells, 0.1 μM and 1 μM
Experimental: (§3) For Western blot analysis, total proteins were extracted using RIPA buffer (ThermoFisher Scientific, Waltham, MA) containing Halt Protease Inhibitor Cocktail (ThermoFisher Scientific). […] After incubation at 4° C. overnight, the following HRP conjugated secondary antibodies were used: (i) goat anti-rabbit IgG (ThermoFisher Scientific) for ikaros and aiolos, and (ii) goat anti-mouse IgG (ThermoFisher Scientific) for SALL4 and GAPDH. […] Antigen-antibody complexes were detected using enhanced chemiluminescence (Thermo, iBright CL1500).
Specifically, MM1.S cells were obtained from ATCC (Manassas, VA, USA), grown in RPMI media supplemented with 10% FBS, penicillin 100 U/mL, and streptomycin […], and maintained at 37° C. and 5% CO2.
as §3, with “MA, USA)” for “MA)”, “Scientific). Thereafter, the proteins were separated by gel electrophoresis and then transferred to polyvinylidene difluoride (PVDF) membranes (ThermoFisher Scientific), as described previously.” for “Scientific).”, “HRP-conjugated” for “HRP conjugated”, “Ikaros” for “ikaros”, “Aiolos,” for “aiolos,”, “(ThermoFisher Scientific,” for “(Thermo,”

| Compound | Brain cortex IFN-γ levels (in words) (IFN-γ) | IFN-γ in plasma (in words) (IFN-γ) | lateral ventricle size (CCI-induced TBI mice [1]; both doses, 2 weeks after TBI) | loss of cortical tissue (lesion volume) (CCI-induced TBI mice [1]; higher dose 32.5 mg/kg, 2 weeks after TBI) | loss of cortical tissue (lesion volume) (CCI-induced TBI mice [1]; lower dose 16.25 mg/kg, 2 weeks after TBI) | microglial morphology (ramification index, spanned area, end points, branches, junctions), ipsilateral side (CCI-induced TBI mice [2]; lower and higher dose, 2 weeks after CCI) | SALL4 expression levels (SALL4) | SALL4 expression levels (SALL4; listed as TFBP) | SALL4 expression levels (SALL4; listed as TFNBP) | lesion size (CCI-induced TBI mice [1]; low dose 14.78 mg/kg, 2 weeks post-TBI, vs CMC) | number of astrocytes (GFAP) in cortex (CCI-induced TBI mice [2]; 14.78, 29.57 mg/kg, 2 weeks after TBI) | number of branches, junctions, endpoints of microglial processes (CCI-induced TBI mice [2]; 14.78, 29.57 mg/kg, ipsilateral cortex) | number of microglia induced by TBI (CCI-induced TBI mice [2]; cortex) | microglial ramification index and spanned area (CCI-induced TBI mice [2]; ipsilateral cortex, 2 weeks after TBI) |
| --- | --- | --- | --- | --- | --- | --- | --- | --- | --- | --- | --- | --- | --- | --- |
| CC1(C)[C@@H]2CC[C@@]1(C)[C@@H](N1C(=O)c3c(F)c(F)c(F)c(F)c3C1=O)C2 [Compound 14, 4,5,6,7-Tetrafluoro-2-((1R,2S,4R)-1,7,7-trimethylbicyclo[2.2.1]heptan-2-yl) isoindoline-1,3-dione] | not impacted | proved able to reduce this rise | did not reach statistical significance | failed to reach statistical significance | reduce loss of cortical tissue | substantially counteracted these CCI-induced microglial phenotypic measures | did not statistically affect | did not lower the expression of neosubstrate SALL4 |  |  |  |  |  |  |
| O=C1c2c(F)c(F)c(F)c(F)c2C(=O)N1C1CC2CCC1C2 (stereo not drawn) [Compound 16, 2-Endo-(bicyclo[2.2.1]heptan-2-yl)-4,5,6,7-tetrafluoroisoindoline-1,3-dione] | not impacted | proved able to reduce this rise |  |  |  |  | did not statistically affect |  | did not lower the expression of neosubstrate SALL4 |  |  |  |  |  |
| Nc1ccc(F)c2c1C(=S)N(C1CCC(=S)NC1=O)C2=O (centres unmarked) [Compound 30, 4-amino-7-fluoro-2-(2-oxo-6-thioxopiperidin-3-yl)-3-thioxoisoindolin-1-one] |  |  |  |  |  |  |  |  |  | significant reduction of the lesion size | significantly decreased the number of astrocytes | significantly rescue the morphological changes of microglia | subtle reduction, but not significant | significantly ameliorated the morphological alteration of microglia |
